Legend:
[1] = test system: IGF-II receptor; assay: Equilibrium binding assay, primary cerebellar neuron cultures; assay type: cell-based, rat
Method: (§1) Fresh frozen tissue (˜100 mg) was homogenized in 5 volumes of NP-40 lysis buffer (50 mM Tris-HCl, pH 7.5, 1% NP-40, 150 mM NaCl, 1 mM EDTA, 2 mM EGTA) containing protease inhibitors (1 mM PMSF, 0.1 mM TPCK, 1 μg/ml aprotinin, 1 μg/ml pepstatin A, 0.5 μg/ml leupeptin, 1 mM NaF, 1 mM Na4P2O7). Protein concentrations were determined using the bicinchoninic acid (BCA) assay (Pierce, Rockford, Ill.). Exploratory studies determined the amounts of protein and concentrations of radiolabeled ligand required to achieve 20% specific binding. Insulin receptor binding assays were performed using 100 μg protein. IGF-I binding assays required 25 μg protein per sample, and IGF-II receptor binding assays were optimized using 10 μg protein. Competitive equilibrium binding assays were used to assess growth factor binding in relation to ethanol exposure. For total binding, duplicate individual protein samples were incubated in 100 μl reactions containing binding buffer (100 mM HEPES, pH 8.0, 118 mM NaCl, 1.2 mM MgSO4, 8.8 mM dextrose, 5 mM KCl, 1% bovine serum albumin) and 100 nCi/ml of [^125I] (2000 Ci/mmol; […]) insulin, IGF-I, or IGF-II. To measure non-specific binding, replicate samples were identically prepared but with the addition of 0.1 μM unlabeled (cold) ligand.
(§2) All reactions were performed in 1.5 ml Eppendorff tubes, and the incubations were performed at 4° C. for 16 hours with gentle platform agitation. Bound radiolabeled tracer was then precipitated by adding 500 μl of 0.15% bovine gamma globulin (prepared in 100 mM Tris-HCl, pH 8.0) followed by 400 μl 37.5% polyethylene glycol 8000 (PEG-8000; prepared in 100 mM Tris-HCl, pH 8.0) to each tube. The samples were thoroughly mixed by vortexing, and then incubated on ice for at least 2 hours. The precipitates were collected by centrifuging the samples at 15,000×g for 5 minutes at room temperature. The supernatant fraction, which contained unbound (free) ligand, was transferred in its entirety to a Gamma counting tube (Sarstedt, Newton, N.C.). The Eppendorff tube tip containing the pellet was cut and released directly into a separate Gamma counting tube. The samples were counted for 1 minute in an LKB CompuGamma CS Gamma counter. Specific binding was calculated by subtracting fmol of non-specific binding, i.e., amount bound in the presence of cold ligand, from the total fmol bound (absence of unlabeled competitive ligand). The results were analyzed and plotted using the GraphPad Prism 4 software (GraphPad Software, Inc., San Diego, Calif.).
(§3) In vitro experiments were used to examine the effects of ethanol on receptor binding and choline acetyltransferase (ChAT) and acetylcholinesterase (AChE) expression in cerebellar neurons. Primary neuronal cultures were generated with postnatal day 8 rat pup cerebellar tissue (Nikolic et al. Genes Dev. 10:816 (1996)). The cultures were maintained with Dulbecco's modified Eagle's medium (DMEM) supplemented with 5% fetal calf serum, 4 mM glutamine, 100 μM non-essential amino acid mixture (Gibco-BRL, Grand Island, N.Y.), 25 mM KCl, and 9 g/L glucose. […] Alcohol Clin. Exp. Res. 24:716 (2000); Banerjee et al. Alcohol Clin. Exp. Res. 22:2093 (1998)). Control cultures were identically treated but with water added to the reservoir tray. The chambers were flushed with gas containing 75% nitrogen, 20% oxygen, and 5% carbon dioxide. […] Alternatively, the cells were serum-starved for 12 hours and then stimulated with 10 nM insulin, […], 25 nM IGF-II, or vehicle for 16 hours, and RNA was harvested to measure ChAT and AChE expression.

[2] = test system: insulin receptor; assay: as above; assay type: cell-based, rat
Method: as §1, §2, §3

[3] = 50 mM ethanol for 96 hours vs control cultures
[4] = 10 mM for 3 hours, control and ethanol-exposed cultures, relative to vehicle-treated cells

Question: Which IGF-II receptor binding [1, 3] does the source give for `CCO` [ethanol] here?
Answer: Its IGF-II receptor binding is “significantly reduced”.

Question: What about the insulin receptor binding [2, 3] of the same compound?
Answer: The insulin receptor binding was “significantly reduced”.

Question: What does the source list for `CC(C)CCC[C@@H](C)[C@H]1CC[C@H]2[C@@H]3CC=C4C[C@@H](O)CC[C@]4(C)[C@H]3CC[C@]12C` [cholesterol]?
Answer: IGF-II receptor binding ([1]; 10 mM for 3 hours, control cerebellar neurons): significantly impaired; insulin receptor binding ([2]; 10 mM for 3 hours, control cells): no significant effect; insulin-receptor binding ([2]; 10 mM for 3 hours, ethanol-treated cells): enhanced

Question: With Methyl-β-cyclodextrin [MβCD] as the compound, how does the IGF-II receptor binding [1, 4] read?
Answer: The IGF-II receptor binding was “significantly inhibited”.

Question: And the insulin receptor binding [2, 4]?
Answer: The insulin receptor binding was “significantly inhibited”.
